From patent publication US20240150300A1, “S-CONFIGURATION-CONTAINING AMINO BENZAMIDE PYRIDAZINONE COMPOUND, PREPARATION METHOD THEREFOR, AND PHARMACEUTICAL COMPOSITION AND APPLICATION THEREOF” (SHANGHAI INSTITUTE OF MATERIA MEDICA, CHINESE ACADEMY OF …, priority 2021, published 2024)

Experiments:
VMM39 = assay: Antiproliferative activity, CCK-8, VMM39; format: cell-based; conditions: VMM39, Melanoma; read-out: Cytotoxicity (IC50 μM)
Method: (§1) The tumor cells used were purchased from commercial cell banks (HCT116 purchased from ATCC, SKM 1 purchased from JCRB). The growth inhibition of cells was detected using the CCK-8 method. The specific steps were as follows. Cells in the logarithmic growth phase were seeded into a 96 well culture plate at an appropriate density, with 90 μL/well. After overnight cultivation, different concentrations of drugs were added for treatment for 72 h, with each concentration in triplicate, and corresponding concentration of vehicle control and cell-free blank wells were also set. After the treatment, 10 μL of CCK-8 was added to each well and the plate was incubated in an incubator for 2-4 hours, and the optical density (OD value) at a wavelength of 450 nm was measured using a SpectraMax 190 microplate reader. […] The experiment was repeated twice, and the mean value and SD were calculated.
(§2) The testing method for antiproliferative activity was the same as that mentioned in Pharmacological Experiment Example 2, and the results are shown in Table 4 and FIGS. 2-3.

U937 = assay: Antiproliferative activity, CCK-8, U937; format: cell-based; conditions: U937, Human tissue cell lymphoma; read-out: Cytotoxicity (IC50 μM)
Method: as §1, §2

HDAC8 = HDAC8 (Homo sapiens (Human), UniProt Q9BY41); assay: HDAC subtype inhibitory activity (HTRF), HDAC8; format: biochemical
Method: (§3) Human recombinant HDAC family proteins with His and GST tags were expressed using insect baculovirus expression system, and a biologically active HDAC family recombinant protein was obtained through Ni affinity column protein purification. HTRF detection method was used with H3(1-21) K9Ac biotin as the substrate. […] Briefly, 20 μl of the activity testing system included the HDAC substrate (0.2 μM. 4 μl), the Human Recombinant Protein HDAC (2-5 ng)/μl.

K-562 = assay: Antiproliferative activity, CCK-8, K-562; format: cell-based; conditions: K-562, Chronic myeloid leukemia; read-out: Cytotoxicity (IC50 μM)
Method: as §1, §2

U-2932 = assay: Antiproliferative activity, CCK-8, U-2932; format: cell-based; conditions: U-2932, Diffuse large B-cell lymphoma; read-out: Cytotoxicity (IC50 μM)
Method: as §1, §2

EoL-1 = assay: Antiproliferative activity, CCK-8, EoL-1; format: cell-based; conditions: EoL-1, Chronic eosinophilic leukemia; read-out: Cytotoxicity (IC50 μM)
Method: as §1, §2

Z138 = assay: Antiproliferative activity, CCK-8, Z138; format: cell-based; conditions: Z138, Human mantle cell lymphoma; read-out: Cytotoxicity (IC50 μM)
Method: as §1, §2

RS4; 11 = assay: Antiproliferative activity, CCK-8, RS4; 11; format: cell-based; conditions: 11, Acute lymphoblastic leukemia, read-out: Cytotoxicity (IC50 μM)
Method: as §1, §2

RL = assay: Antiproliferative activity, CCK-8, RL; format: cell-based; conditions: Diffuse large B-cell lymphoma, read-out: Cytotoxicity (IC50 μM)
Method: as §1, §2

Mino = assay: Antiproliferative activity, CCK-8, Mino; format: cell-based; conditions: Mantle cell lymphoma, read-out: Cytotoxicity (IC50 μM)
Method: as §1, §2

SU-DHL-6 = assay: Antiproliferative activity, CCK-8, SU-DHL-6; format: cell-based; conditions: SU-DHL-6, Diffuse large B-cell lymphoma; read-out: Cytotoxicity (IC50 μM)
Method: as §1, §2

HDLM-2 = assay: Antiproliferative activity, CCK-8, HDLM-2; format: cell-based; conditions: HDLM-2, Hodgkin's lymphoma; read-out: Cytotoxicity (IC50 μM)
Method: as §1, §2

MV-4-11 = assay: Antiproliferative activity, CCK-8, MV-4-11; format: cell-based; conditions: MV-4-11, Acute monocyte/Monocyte leukemia; read-out: Cytotoxicity (IC50 μM)
Method: as §1, §2

A375 = assay: Antiproliferative activity, CCK-8, A375; format: cell-based, human; conditions: A375, Melanoma; read-out: Cytotoxicity (IC50 μM)
Method: as §1, §2

CMK = assay: Antiproliferative activity, CCK-8, CMK; format: cell-based; conditions: Down syndrome acute megakaryocyte leukemia, read-out: Cytotoxicity (IC50 μM)
Method: as §1, §2

REC-1 = assay: Antiproliferative activity, CCK-8, REC-1; format: cell-based; conditions: REC-1, Human mantle cell lymphoma; read-out: Cytotoxicity (IC50 μM)
Method: as §1, §2

CCRF-CEM = assay: Antiproliferative activity, CCK-8, CCRF-CEM; format: cell-based; conditions: T-cell acute lymphoblastic leukemia, read-out: Cytotoxicity (IC50 μM)
Method: as §1, §2

VMM5A = assay: Antiproliferative activity, CCK-8, VMM5A; format: cell-based; conditions: Melanoma, read-out: Cytotoxicity (IC50 μM)
Method: as §1, §2

HDAC6 = HDAC6 (Homo sapiens (Human), UniProt Q9UBN7); assay: In vitro histone deacetylase activity assay (HTRF), HDAC6; format: biochemical; conditions: H3(1-21) K9Ac biotin substrate
Method: as §3

SU-DHL-8 = assay: Antiproliferative activity, CCK-8, SU-DHL-8; format: cell-based; conditions: SU-DHL-8, Diffuse large B-cell lymphoma; read-out: Cytotoxicity (IC50 μM)
Method: as §1, §2

PC-9 = assay: Antiproliferative activity, CCK-8, PC-9; format: cell-based; conditions: PC-9, Lung cancer; read-out: Cytotoxicity (IC50 μM)
Method: as §1, §2

OPM-2 = assay: Antiproliferative activity, CCK-8, OPM-2; format: cell-based; conditions: OPM-2, Human multiple myeloid leukemia; read-out: Cytotoxicity (IC50 μM)
Method: as §1, §2

SNU-16 = assay: Antiproliferative activity, CCK-8, SNU-16; format: cell-based; conditions: SNU-16, gastric cancer; read-out: Cytotoxicity (IC50 μM)
Method: as §1, §2

NU-DHL-1 = assay: Antiproliferative activity, CCK-8, NU-DHL-1; format: cell-based; conditions: NU-DHL-1, Diffuse large B-cell lymphoma; read-out: Cytotoxicity (IC50 μM)
Method: as §1, §2

[1] = test system: human acute myeloid leukemia cells OCI-AML-3 transplanted tumor; assay: OCI-AML-3 NOD/SCID mice transplanted tumor model; format: in vivo; conditions: oral 60 mg/kg
NOMO-1 = assay: Antiproliferative activity, CCK-8, NOMO-1; format: cell-based; conditions: NOMO-1, Acute monocytic leukemia; read-out: Cytotoxicity (IC50 μM)
Method: as §1, §2

HH = assay: Antiproliferative activity, CCK-8, HH; format: cell-based; conditions: Primary cutaneous T-cell non Hodgkin lymphoma, read-out: Cytotoxicity (IC50 μM)
Method: as §1, §2

MDA-MB-453 = assay: Antiproliferative activity, CCK-8, MDA-MB-453; format: cell-based; conditions: MDA-MB-453, Breast cancer; read-out: Cytotoxicity (IC50 μM)
Method: as §1, §2

H9 = assay: Antiproliferative activity, CCK-8, H9; format: cell-based; conditions: H9, Human T lymphocyte line; read-out: Cytotoxicity (IC50 μM)
Method: as §1, §2

Sequence of HDAC6 (Q9UBN7 whole entry): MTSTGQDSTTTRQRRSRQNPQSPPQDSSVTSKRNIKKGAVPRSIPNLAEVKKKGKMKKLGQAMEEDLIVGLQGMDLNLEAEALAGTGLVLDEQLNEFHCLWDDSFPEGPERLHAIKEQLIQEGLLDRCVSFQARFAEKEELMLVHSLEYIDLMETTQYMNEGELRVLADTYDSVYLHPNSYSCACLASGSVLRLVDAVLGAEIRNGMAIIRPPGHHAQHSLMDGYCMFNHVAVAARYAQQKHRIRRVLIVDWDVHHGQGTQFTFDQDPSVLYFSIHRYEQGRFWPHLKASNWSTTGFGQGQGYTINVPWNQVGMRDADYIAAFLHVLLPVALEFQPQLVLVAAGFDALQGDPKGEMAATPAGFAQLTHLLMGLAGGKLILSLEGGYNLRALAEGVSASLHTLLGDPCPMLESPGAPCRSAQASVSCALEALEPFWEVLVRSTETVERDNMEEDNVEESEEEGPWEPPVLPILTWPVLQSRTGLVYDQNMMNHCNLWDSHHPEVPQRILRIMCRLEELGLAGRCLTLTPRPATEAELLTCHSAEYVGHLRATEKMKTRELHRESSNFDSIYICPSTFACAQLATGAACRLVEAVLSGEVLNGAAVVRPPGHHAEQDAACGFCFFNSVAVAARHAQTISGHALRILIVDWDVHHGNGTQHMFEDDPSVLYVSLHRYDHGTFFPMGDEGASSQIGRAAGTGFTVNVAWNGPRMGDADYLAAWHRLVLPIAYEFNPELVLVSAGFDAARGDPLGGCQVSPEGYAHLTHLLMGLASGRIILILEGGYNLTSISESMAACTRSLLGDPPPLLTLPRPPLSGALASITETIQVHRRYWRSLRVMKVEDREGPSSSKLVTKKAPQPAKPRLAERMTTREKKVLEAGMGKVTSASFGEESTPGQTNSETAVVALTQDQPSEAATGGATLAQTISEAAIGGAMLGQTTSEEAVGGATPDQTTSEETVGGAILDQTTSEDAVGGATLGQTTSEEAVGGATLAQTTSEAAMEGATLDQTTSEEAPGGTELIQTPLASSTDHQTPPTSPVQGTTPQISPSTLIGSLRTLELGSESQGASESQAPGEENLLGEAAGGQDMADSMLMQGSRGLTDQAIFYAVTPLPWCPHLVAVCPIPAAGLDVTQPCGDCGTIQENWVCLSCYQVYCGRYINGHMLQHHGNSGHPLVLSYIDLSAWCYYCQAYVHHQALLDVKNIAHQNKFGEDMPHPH
Sequence of HDAC8 (Q9BY41 whole entry): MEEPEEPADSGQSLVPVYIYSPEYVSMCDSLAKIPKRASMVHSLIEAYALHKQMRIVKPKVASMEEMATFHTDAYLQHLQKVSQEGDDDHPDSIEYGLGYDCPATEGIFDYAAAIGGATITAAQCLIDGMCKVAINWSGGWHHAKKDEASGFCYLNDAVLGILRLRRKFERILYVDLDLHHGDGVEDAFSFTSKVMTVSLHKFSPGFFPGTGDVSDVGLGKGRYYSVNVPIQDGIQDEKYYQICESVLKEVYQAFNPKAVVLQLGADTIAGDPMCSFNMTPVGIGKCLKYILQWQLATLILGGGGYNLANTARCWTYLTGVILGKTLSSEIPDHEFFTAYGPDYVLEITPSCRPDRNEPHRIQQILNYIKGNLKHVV

Question: Which results are given for `C[C@@H](c1ccc(C(=O)Nc2ccc(F)cc2N)cc1)n1nc(-c2ccc(CN(C)C)cc2)ccc1=O` [Compound I-1]?
Answer: IC50 (VMM39): 0.46 ± 0.032 µM; IC50 (U937): 0.435 ± 0.254 µM; IC50 (HDAC8): > 100000 nM; IC50 (K-562): 0.473 ± 0.171 µM; IC50 (U-2932): 0.214 ± 0.001 µM; IC50 (EoL-1): 0.158 µM; IC50 (Z138): 0.363 ± 0.046 µM; IC50 (RS4; 11): 0.412 ± 0.129 µM; IC50 (RL): 0.24 ± 0.019 µM; IC50 (Mino): 0.142 ± 0.013 µM; IC50 (SU-DHL-6): 0.576 ± 0.066 µM; IC50 (HDLM-2): 0.647 ± 0.404 µM; IC50 (MV-4-11): 0.088 ± 0.002 µM; IC50 (A375): 0.556 ± 0.018 µM; IC50 (CMK): 0.131 ± 0.011 µM; IC50 (REC-1): 0.381 µM; IC50 (CCRF-CEM): 0.382 ± 0.067 µM; IC50 (VMM5A): 0.856 ± 0.018 µM; IC50 (HDAC6): > 10000 nM; IC50 (SU-DHL-8): 0.443 ± 0.185 µM; IC50 (PC-9): 0.461 ± 0.034 µM; IC50 (OPM-2): 0.436 ± 0.222 µM; IC50 (SNU-16): 0.675 ± 0.064 µM; IC50 (NU-DHL-1): 0.243 µM; relative tumor proliferation rate (T/C) ([1]; OCI-AML-3 transplanted tumor, 14 days): 7.75%; body weight of mice ([1]; during the transplanted tumor experiment): remained basically unchanged; IC50 (NOMO-1): 0.523 ± 0.12 µM; IC50 (HH): 0.219 ± 0.093 µM; IC50 (MDA-MB-453): 0.498 ± 0.036 µM; IC50 (H9): 0.649 ± 0.044 µM
